Here are results for 10 molecules from PubChem BioAssay (NCI).

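Where inhibition never reached the appropriate level, the endpoint shown equals the highest concentration tested. Otherwise, values were interpolated linearly from a five-concentration, 48-hour dose response in 96-well plates. At the GI50, growth is halved. TGI: concentration producing complete growth inhibition.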

Test in all cases: DTP human tumour cell line panel, 48 h
Assay [1] concerns HL-60(TB) leukemia.
In assay [2] the test system is A549 NSCLC.
In assay [3] the test system is OVCAR-4 ovarian.
The subject of assay [4] is SN12C renal.
In assay [5] the test system is MCF7 breast.
The test system of assay [6] is NCI/ADR-RES ovarian.
Assay [7] concerns SNB-19 CNS.
For assay [8], the system named is UACC-62 melanoma.
Assay [9] relates to ACHN renal.
Assay [10] deals with DU-145 prostate.

Regarding `CCOC(=O)/C=C/c1c[nH]c(=O)[nH]c1=O`, the concentration for total growth inhibition (TGI) in [1], in assay [2], in assay [3], in assay [4], in assay [5] and in assay [6] was over 75 µM in each case. For the same molecule, the TGI in assay [7] and in assay [8] was over 75 µM in each case.

Take `CCCCCCC(=O)c1ccc2ccccc2c1O`: the total growth inhibition concentration (TGI) in [1] is over 100 µM; in [9] it was over 100 µM; in assay [10] it was 92.6 µM; in assay [3], over 100 µM; in [5] it was over 100 µM; in assay [6] it was over 100 µM. In addition, the TGI in assay [7] and in assay [8] was over 100 µM each time.

Regarding `CC(=O)OCc1nnn2c1CCC2`, the TGI in [1], in assay [9], in [2], in assay [3], in assay [4] and in [8] was over 100 µM throughout.

For the molecule `C=CCOC1OC(CS(=O)(=O)O)C(OC(C)=O)C(OC(C)=O)C1OC(C)=O` (stereo not drawn), the concentration for total growth inhibition (TGI) in assay [1], in [10], in assay [3], in assay [4], in [5] and in [6] was over 100 µM in each case. In addition, the concentration for total growth inhibition (TGI) in assay [7] and in [8] was over 100 µM in each case.

As to `CCOC(=O)C1=C(C)N(C2OC(COC(C)=O)C(OC(C)=O)C(OC(C)=O)C2OC(C)=O)C(=O)NC1c1ccccc1` (stereo not drawn), the TGI in [1], in assay [9], in assay [2], in [3], in [4] and in [7] was over 100 µM in each case. In assay [8], the TGI was over 100 µM.

In the case of `COc1ccc(OCC(C)(C)O)cc1`, the TGI in assay [1] is over 100 µM; in assay [2] it was over 100 µM; in [3] it was over 100 µM; in assay [4], over 100 µM; in assay [5] it was over 84.1 µM; in assay [6], over 100 µM. In addition, the TGI in [7] and in [8] was over 100 µM each time.

For `c1ccc(N2N=C3N(c4ccccc4)C2N3c2ccccc2)cc1`, the TGI in [1], in assay [9], in assay [2], in [10], in assay [3] and in [4] was over 100 µM throughout. Besides, the TGI in assay [5] was over 100 µM; in assay [6], over 100 µM; in assay [7], over 100 µM; in [8], 80.2 µM.

Turning to `COc1ccc(-c2c3c(nc4[nH]c(=S)[nH]c(=S)c24)CCCC3)cc1OC`, the TGI in [1] is over 100 µM; in assay [9], over 100 µM; in assay [2], 59 µM; in assay [10], over 100 µM; in [3], over 100 µM; in assay [4], 86.2 µM. Further, the TGI in [5] is over 100 µM; in [6], 66.1 µM; in assay [7] it was over 100 µM; in assay [8], 37.5 µM.

Take `CCCCn1c(C)c2c(c1C)C(=O)N(CCN1CCN(c3ccccc3Cl)CC1)C2=O`: the TGI in assay [1] was 51 µM; in assay [9], over 100 µM; in assay [2] it was over 100 µM; in [10], over 100 µM; in assay [3], over 100 µM; in assay [4], 61.3 µM. The TGI was 99 µM in [5], over 100 µM in assay [6], over 100 µM in assay [7] and over 100 µM in [8].

With `CCCCCCCCCC[N+](C)(C)C`, the GI50 is 874 nM in [1]; 2390 nM in assay [9]; 2520 nM in assay [2]; 1940 nM in assay [10]; 2200 nM in assay [3]; 2950 nM in assay [4]. Also, the GI50 is 2450 nM in assay [5], 15.1 µM in assay [6] and 1690 nM in assay [8]. Besides, the TGI in assay [1] amounted to 2.59 µM; in assay [9], 12.5 µM; in [2], 8.43 µM; in [10], 4.88 µM; in [3] it was 14.5 µM; in assay [4], 8.66 µM. Also, the TGI in [5] was 12.7 µM; in assay [6], 49.6 µM; in assay [8], 4.59 µM.

As usually defined, the TGI is the concentration at which net growth stops. As a reminder, the GI50 is the concentration at which growth is held to half of that of the control.
